Assay [1] deals with MAP kinase-interacting serine/threonine-protein kinase 2 (Homo sapiens, UniProt Q9HBH9).
A further assay addresses Ephrin type-A receptor 5 (Homo sapiens, UniProt P54756).
A further assay has as its target Wee1-like protein kinase (Homo sapiens, UniProt P30291).
In assay [2] the target is Dual specificity protein kinase CLK2 (Homo sapiens, UniProt P49760).
Assay [3] deals with Serine/threonine-protein kinase Nek7 (Homo sapiens, UniProt Q8TDX7).
Assay [4] has as its target Bone morphogenetic protein receptor type-1A (Homo sapiens, UniProt P36894).
For the next assay, the target named is T1, Myotonin-protein kinase (Homo sapiens, UniProt Q09013).
T1 sequence (Q09013 whole entry): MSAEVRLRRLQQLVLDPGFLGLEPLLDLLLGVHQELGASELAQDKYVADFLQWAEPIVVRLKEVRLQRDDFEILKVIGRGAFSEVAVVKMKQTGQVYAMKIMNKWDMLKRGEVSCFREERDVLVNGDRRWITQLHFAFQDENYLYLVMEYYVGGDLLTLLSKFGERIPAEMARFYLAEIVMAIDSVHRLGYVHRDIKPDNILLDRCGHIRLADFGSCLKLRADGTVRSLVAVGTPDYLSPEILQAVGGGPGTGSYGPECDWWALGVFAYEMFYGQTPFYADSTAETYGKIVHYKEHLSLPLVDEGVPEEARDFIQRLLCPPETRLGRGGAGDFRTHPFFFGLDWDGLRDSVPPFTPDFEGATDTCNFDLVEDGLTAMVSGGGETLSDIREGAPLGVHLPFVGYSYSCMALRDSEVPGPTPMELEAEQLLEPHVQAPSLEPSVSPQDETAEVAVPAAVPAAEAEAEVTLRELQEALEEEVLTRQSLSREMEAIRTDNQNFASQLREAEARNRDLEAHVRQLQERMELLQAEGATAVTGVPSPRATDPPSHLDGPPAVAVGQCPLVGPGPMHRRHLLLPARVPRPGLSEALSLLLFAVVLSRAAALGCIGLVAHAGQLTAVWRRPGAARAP

Assay [5] has as its target Receptor-type tyrosine-protein kinase FLT3 (Homo sapiens, UniProt P36888, N841I).
In assay [6] the target is STE20-like serine/threonine-protein kinase (Homo sapiens, UniProt Q9H2G2).
Assay [7] concerns the target T2, Dual specificity mitogen-activated protein kinase kinase 4 (Homo sapiens, UniProt P45985).
T2 sequence (P45985 whole entry): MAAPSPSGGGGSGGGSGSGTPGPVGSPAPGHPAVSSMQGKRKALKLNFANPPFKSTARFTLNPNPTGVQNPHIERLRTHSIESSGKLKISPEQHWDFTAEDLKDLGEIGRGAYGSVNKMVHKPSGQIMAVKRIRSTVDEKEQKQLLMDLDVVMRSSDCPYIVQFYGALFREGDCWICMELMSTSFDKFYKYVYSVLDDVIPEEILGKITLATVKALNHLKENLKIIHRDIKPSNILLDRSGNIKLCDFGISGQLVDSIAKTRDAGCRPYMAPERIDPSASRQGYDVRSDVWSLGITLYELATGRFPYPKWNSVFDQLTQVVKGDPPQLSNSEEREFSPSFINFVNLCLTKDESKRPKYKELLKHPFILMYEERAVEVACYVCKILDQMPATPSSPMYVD

The target in assay [8] is Calcium/calmodulin-dependent protein kinase type 1 (Homo sapiens, UniProt Q14012).
The target of assay [9] is Protein kinase C delta type (Homo sapiens, UniProt Q05655).
Assay [10] concerns the target Dual specificity mitogen-activated protein kinase kinase 1 (Homo sapiens, UniProt Q02750).
Assay [11] deals with Serine/threonine-protein kinase SIK2 (Homo sapiens, UniProt Q9H0K1).
Assay [12] deals with Cyclin-dependent kinase 14 (Homo sapiens, UniProt O94921).
The target of assay [13] is T3, 3-phosphoinositide-dependent protein kinase 1 (Homo sapiens, UniProt O15530).
T3 sequence (O15530 whole entry): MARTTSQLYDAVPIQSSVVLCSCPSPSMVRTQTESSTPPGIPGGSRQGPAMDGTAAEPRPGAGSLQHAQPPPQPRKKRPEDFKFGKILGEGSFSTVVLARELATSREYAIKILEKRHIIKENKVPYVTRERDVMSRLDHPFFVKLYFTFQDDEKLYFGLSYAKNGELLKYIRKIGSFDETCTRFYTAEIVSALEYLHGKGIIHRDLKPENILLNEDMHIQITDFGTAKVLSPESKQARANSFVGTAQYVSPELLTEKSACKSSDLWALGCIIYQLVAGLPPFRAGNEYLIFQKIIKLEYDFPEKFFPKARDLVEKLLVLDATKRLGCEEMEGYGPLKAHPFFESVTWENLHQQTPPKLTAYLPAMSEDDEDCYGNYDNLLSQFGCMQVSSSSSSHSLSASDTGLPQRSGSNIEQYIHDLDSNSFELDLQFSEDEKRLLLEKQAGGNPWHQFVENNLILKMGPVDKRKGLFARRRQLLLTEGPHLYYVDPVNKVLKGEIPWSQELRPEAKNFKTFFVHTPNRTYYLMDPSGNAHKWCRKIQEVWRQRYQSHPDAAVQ

This is an account of results in ChEMBL document CHEMBL1150977, “A quantitative analysis of kinase inhibitor selectivity” (Nat Biotechnol, 2008).

Some results are limits rather than exact numbers.

Chain of STE20-like serine/threonine-protein kinase (Q9H2G2 whole entry): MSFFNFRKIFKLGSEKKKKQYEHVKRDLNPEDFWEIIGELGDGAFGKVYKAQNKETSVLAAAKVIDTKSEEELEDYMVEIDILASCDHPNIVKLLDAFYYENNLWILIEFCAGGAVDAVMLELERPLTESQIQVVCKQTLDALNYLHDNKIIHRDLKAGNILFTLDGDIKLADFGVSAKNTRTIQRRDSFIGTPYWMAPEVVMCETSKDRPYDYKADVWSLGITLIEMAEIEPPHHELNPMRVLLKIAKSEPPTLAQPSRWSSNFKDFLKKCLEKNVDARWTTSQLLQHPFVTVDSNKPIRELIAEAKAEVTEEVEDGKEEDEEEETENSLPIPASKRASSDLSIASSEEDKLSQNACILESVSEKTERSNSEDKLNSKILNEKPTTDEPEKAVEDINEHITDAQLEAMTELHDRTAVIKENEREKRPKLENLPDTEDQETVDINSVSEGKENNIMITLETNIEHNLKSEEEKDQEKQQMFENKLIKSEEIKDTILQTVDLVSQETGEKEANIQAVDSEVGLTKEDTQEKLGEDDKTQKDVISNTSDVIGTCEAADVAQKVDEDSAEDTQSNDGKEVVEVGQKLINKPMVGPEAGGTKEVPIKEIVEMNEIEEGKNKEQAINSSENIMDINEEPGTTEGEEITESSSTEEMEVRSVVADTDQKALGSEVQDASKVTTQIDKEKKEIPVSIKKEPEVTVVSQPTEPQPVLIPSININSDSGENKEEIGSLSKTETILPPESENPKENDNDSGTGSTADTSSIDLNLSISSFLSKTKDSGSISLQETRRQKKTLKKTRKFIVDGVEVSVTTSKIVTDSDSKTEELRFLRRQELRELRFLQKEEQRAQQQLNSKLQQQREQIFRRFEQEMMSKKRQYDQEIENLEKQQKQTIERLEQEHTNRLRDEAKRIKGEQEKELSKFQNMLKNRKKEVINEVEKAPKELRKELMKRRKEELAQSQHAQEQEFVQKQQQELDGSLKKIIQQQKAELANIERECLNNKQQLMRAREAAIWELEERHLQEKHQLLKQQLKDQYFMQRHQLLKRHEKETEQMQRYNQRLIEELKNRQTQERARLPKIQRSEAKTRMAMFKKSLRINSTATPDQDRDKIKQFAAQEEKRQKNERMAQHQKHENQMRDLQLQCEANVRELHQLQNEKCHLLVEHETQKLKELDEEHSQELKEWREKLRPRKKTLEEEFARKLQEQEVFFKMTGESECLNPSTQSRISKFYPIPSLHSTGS
Chain of Dual specificity protein kinase CLK2 (P49760 whole entry): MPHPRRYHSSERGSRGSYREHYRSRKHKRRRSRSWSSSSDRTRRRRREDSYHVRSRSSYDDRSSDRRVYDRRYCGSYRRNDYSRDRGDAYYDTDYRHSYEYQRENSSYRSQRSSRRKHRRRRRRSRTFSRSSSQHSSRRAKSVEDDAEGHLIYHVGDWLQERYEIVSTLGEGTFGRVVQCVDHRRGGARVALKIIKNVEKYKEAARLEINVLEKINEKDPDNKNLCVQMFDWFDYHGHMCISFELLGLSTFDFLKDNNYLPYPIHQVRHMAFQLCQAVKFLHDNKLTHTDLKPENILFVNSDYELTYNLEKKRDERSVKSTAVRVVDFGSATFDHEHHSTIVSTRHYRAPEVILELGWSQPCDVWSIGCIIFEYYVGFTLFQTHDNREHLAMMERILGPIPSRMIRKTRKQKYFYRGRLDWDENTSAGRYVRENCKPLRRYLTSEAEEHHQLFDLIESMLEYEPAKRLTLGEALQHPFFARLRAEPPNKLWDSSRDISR
Chain of Dual specificity mitogen-activated protein kinase kinase 1 (Q02750 whole entry): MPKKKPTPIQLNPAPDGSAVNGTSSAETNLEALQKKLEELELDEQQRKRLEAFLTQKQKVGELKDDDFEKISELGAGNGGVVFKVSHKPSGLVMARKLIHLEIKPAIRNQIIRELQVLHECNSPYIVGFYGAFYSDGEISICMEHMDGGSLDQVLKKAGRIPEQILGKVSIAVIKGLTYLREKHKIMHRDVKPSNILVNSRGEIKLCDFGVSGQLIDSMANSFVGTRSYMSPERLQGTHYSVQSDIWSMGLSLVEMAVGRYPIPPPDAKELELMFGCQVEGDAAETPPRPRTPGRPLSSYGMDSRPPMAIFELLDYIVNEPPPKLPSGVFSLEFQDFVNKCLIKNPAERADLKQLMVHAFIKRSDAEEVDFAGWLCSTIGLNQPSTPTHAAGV
Chain of Calcium/calmodulin-dependent protein kinase type 1 (Q14012 whole entry): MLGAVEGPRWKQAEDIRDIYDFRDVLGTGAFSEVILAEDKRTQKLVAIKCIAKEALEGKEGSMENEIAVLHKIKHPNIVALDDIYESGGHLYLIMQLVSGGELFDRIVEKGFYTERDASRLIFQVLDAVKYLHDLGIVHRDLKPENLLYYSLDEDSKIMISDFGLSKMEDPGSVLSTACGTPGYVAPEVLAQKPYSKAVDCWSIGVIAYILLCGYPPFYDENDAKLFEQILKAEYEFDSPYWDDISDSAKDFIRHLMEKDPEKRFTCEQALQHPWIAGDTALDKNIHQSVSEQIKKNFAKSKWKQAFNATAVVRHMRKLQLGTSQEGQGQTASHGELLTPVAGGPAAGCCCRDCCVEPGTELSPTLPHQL
Chain of Serine/threonine-protein kinase SIK2 (Q9H0K1 whole entry): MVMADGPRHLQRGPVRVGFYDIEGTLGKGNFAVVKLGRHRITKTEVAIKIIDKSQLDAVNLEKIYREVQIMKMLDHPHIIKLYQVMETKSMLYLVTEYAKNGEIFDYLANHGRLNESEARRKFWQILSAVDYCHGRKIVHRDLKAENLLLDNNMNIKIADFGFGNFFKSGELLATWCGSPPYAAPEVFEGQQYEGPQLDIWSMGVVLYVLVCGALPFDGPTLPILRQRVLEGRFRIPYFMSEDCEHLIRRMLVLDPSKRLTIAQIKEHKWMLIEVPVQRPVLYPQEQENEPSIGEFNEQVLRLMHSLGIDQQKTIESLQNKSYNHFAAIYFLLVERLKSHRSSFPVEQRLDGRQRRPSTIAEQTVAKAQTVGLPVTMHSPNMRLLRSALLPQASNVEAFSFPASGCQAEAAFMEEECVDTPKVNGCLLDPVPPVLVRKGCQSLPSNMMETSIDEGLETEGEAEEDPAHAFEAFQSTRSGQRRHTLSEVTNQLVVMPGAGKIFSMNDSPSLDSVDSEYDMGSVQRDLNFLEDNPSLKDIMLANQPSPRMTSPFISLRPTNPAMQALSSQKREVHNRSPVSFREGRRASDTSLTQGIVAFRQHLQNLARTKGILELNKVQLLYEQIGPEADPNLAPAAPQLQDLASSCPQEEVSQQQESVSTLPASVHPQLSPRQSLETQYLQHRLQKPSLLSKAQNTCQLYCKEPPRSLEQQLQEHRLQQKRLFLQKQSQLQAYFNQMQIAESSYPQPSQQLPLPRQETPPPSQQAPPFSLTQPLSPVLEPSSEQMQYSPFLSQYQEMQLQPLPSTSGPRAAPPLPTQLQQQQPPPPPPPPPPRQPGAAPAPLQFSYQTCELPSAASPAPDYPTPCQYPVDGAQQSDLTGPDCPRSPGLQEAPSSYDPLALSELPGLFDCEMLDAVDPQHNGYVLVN
Chain of Bone morphogenetic protein receptor type-1A (P36894 whole entry): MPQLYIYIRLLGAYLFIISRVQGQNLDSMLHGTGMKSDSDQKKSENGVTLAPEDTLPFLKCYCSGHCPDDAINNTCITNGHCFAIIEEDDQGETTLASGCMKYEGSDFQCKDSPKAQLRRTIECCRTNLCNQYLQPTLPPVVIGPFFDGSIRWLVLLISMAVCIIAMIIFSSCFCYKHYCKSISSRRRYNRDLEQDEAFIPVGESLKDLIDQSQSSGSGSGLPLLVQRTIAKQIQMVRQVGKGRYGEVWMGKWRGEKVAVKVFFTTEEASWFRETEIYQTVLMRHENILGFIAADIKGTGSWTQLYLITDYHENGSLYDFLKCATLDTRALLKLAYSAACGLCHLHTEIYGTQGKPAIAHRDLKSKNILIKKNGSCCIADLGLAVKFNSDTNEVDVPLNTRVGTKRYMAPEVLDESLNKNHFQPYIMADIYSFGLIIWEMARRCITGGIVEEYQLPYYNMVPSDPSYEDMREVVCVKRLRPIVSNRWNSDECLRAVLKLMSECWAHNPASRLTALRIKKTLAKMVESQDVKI
Chain of MAP kinase-interacting serine/threonine-protein kinase 2 (Q9HBH9 whole entry): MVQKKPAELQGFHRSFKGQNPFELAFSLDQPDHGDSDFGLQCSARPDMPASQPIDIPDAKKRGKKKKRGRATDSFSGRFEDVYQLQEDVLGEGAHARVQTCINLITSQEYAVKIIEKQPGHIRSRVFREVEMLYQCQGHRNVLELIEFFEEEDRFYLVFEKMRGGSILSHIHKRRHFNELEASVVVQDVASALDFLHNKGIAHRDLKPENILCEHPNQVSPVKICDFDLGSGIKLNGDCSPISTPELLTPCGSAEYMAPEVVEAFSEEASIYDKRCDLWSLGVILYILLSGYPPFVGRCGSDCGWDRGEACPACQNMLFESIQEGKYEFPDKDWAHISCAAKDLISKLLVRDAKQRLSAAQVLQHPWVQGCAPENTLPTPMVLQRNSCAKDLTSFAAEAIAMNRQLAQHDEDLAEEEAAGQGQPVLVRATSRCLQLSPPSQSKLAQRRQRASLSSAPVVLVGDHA
Chain of Cyclin-dependent kinase 14 (O94921 whole entry): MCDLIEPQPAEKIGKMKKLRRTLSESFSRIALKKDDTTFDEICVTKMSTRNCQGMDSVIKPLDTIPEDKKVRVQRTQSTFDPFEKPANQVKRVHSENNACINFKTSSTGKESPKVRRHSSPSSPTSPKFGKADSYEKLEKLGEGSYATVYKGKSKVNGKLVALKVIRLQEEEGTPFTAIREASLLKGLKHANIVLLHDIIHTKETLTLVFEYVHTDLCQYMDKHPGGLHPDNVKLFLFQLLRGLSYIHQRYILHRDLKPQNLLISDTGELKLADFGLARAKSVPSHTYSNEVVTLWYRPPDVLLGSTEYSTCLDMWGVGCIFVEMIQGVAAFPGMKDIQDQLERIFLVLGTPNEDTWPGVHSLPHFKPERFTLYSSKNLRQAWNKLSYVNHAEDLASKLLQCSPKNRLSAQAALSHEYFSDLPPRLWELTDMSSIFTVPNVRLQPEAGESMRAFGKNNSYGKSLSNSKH

In the case of `Oc1ccc(-c2nc(-c3ccncc3)c(-c3ccc(F)cc3)[nH]2)cc1` [SB-202190], the Kd (in assay [1]; on Ephrin type-A receptor 5; on Wee1-like protein kinase; in assay [2]; in [3]; in [4]) was over 10 µM in each case. Besides, the Kd at Myotonin-protein kinase was over 10 µM; in assay [5] it was over 10 µM; in [6] it was 3.2 µM; in assay [7] it was over 10 µM; in assay [8] it was over 10 µM; in assay [9], over 10 µM. Further, the Kd in [10], in [11], in [12] and in [13] was over 10 µM throughout.

The molecule `CCN1CCN(Cc2ccc(NC(=O)Nc3ccc(Oc4cc(NC)ncn4)cc3)cc2C(F)(F)F)CC1` [AST-487] returned a Kd in [7] of over 10 µM.

As for `COCC(=O)NC/C=C/c1ccc2ncnc(Nc3ccc(Oc4ccc(C)nc4)c(C)c3)c2c1` [CP-724714], the Kd is 0.84 µM in assay [1]; over 10 µM at Ephrin type-A receptor 5; over 10 µM on Wee1-like protein kinase; over 10 µM in assay [2]; over 10 µM in assay [3]; over 10 µM in assay [4]. The Kd (on Myotonin-protein kinase; in assay [5]; in [6]; in [7]; in assay [9]; in [10]) was over 10 µM each time. Also, the Kd in assay [11], in assay [12] and in assay [13] was over 10 µM in each case.

Take `Nc1nc(Nc2ccc(S(N)(=O)=O)cc2)nn1C(=O)c1c(F)cccc1F` [JNJ-7706621]: the Kd was over 10 µM in assay [1]; over 10 µM on Ephrin type-A receptor 5; over 10 µM at Wee1-like protein kinase; over 10 µM in assay [3]; over 10 µM in assay [4]; 0.048 µM in [6]. The Kd is over 10 µM in [8], 4.5 µM in [9], 3.6 µM in assay [12] and 3.1 µM in assay [13].

Turning to `NC(=O)c1ccc(-c2nc(-c3ccc4c(c3)OCO4)c(-c3ccccn3)[nH]2)cc1` [SB-431542], the Kd (in assay [1]; at Ephrin type-A receptor 5; on Wee1-like protein kinase; in assay [2]; in assay [3]; in assay [4]) was over 10 µM in each case. Besides, the Kd (at Myotonin-protein kinase; in [6]; in assay [7]; in assay [8]; in [9]; in assay [10]) was over 10 µM each time. The Kd in [11], in [12] and in assay [13] was over 10 µM throughout.

Take `CCOc1cc2ncc(C#N)c(Nc3ccc(F)c(Cl)c3)c2cc1NC(=O)/C=C/CN(C)C` [PELITINIB]: the dissociation constant (Kd) is over 10 µM in assay [1]; over 10 µM on Ephrin type-A receptor 5; 1.8 µM in [2]; over 10 µM in assay [3]; over 10 µM in [4]; 0.059 µM on Myotonin-protein kinase. For the same molecule, the Kd in assay [5] was 2 µM; in assay [7], over 10 µM; in assay [8] it was over 10 µM; in assay [12], over 10 µM; in assay [13] it was over 10 µM.

For orientation: Kd means a measure of binding affinity in units of concentration.
